# Legend:
# human salivary α-amylase [1] = molecular target: T1, human salivary α-amylase (Homo sapiens, UniProt P0DUB6); assay: enzyme inhibition with amylose substrate, DNS readout after SPE; plateau at […] inhibition at […]; format: biochemical
# T1 construct: gene AMY1A; human salivary α-amylase type IX-A (Sigma-Aldrich)
# T1 sequence (P0DUB6 16-511): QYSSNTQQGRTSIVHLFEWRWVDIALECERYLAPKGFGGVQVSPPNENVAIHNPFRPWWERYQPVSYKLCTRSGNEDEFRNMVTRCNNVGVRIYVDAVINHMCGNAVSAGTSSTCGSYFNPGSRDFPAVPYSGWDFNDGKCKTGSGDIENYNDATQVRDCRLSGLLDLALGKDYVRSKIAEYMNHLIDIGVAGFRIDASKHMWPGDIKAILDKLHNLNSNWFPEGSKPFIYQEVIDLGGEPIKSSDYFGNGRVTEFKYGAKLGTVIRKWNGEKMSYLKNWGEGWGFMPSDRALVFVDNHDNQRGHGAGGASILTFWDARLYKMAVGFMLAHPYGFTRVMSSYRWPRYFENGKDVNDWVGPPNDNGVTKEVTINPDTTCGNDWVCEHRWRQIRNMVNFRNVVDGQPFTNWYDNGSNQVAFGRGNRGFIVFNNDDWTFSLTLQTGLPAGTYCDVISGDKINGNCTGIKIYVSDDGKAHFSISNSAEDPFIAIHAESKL
# human salivary α-amylase [2] = molecular target: T1, human salivary α-amylase; assay: enzyme inhibition with amylose substrate, DNS readout after SPE; very weak; format: biochemical
compound,measurement,setting,value
"COc1ccc(C=CC(=O)O)cc1OC [3,4-dimethoxycinnamic acid]",inhibition at 600 µM,human salivary α-amylase [1],32%
"O=C(/C=C/c1ccc(O)c(O)c1)O[C@@H]1C[C@](O)(C(=O)O)C[C@@H](O)[C@H]1O [5-CQA, 5-caffeoylquinic acid]",inhibition at 5000 µM,human salivary α-amylase [2],20.5%
